Experimental data reported in patent US20110212909A1, “Use of Ginsenoside Compound K in the Preparation of a Medicament for the Prevention and Treatment of Atherosclerosis” (priority 2008, published 2011).
Marks after values point to notes of the source that are not given here.

Assays:
[1] = tested on: hs-CRP; assay: Serum hs-CRP by double antibody sandwich ELISA in apo E−/− mice; format: in vivo, mouse; settings: 15 weeks
Procedure: (§1) 80 healthy clean grade C57BL/6J apo E^−/^− mice of 10 weeks old, wherein male and female mice were fifty-fifty, weight 20-22 g, were breed and divided into individual cage in sterile laminar flow rack, allowing mice to freely drink water and get food. Mice were raised for 30 weeks by “Western Diet” (routine mouse feed +0.15% cholesterol +21% fat) high fat feed (^60cobalt sterilization radiation treatment), with raising conditions being SPF grade, room temperature maintained at 24° C., relative humidity of 50%, and lighting time of 7: 30-19: 30. Animal house was sterilized by ultraviolet lamp once every two days, in order to maintain sterile environment of laminar flow rack (establishment of animal model of atherosclerosis refers to reference: Barish G D, Atkins A R, Downes M, Olson P, Chong L W, Nelson M, Zou Y H, Hwang H S, Kang H J, Curtiss L, Evans R M, Lee C H. PPARδ regulates multiple proinflammatory pathways to suppress atherosclerosis. Proc Natl Acad Sci, 2008, 105 (11): 4271-4276.).
(§2) 5 mice of apo E^−/^− mice raised for 15 weeks were randomly selected and sacrificed, root of aorta of which was taken, and replication condition in AS model was observed by HE staining. The remaining mice were randomly divided into 5 groups as follows (n=15): […]
(§3) Above drugs were firstly solved in DMSO, then suspended in 0.5% carboxymethylcellulose solution, mixed homogeneously, and then were administered via gavage, once a day. Mice were weighted once a week, and ingestion amounts were recorded, and drug doses were adjusted according to weight, interfering for 15 weeks. […]
(§4) • blood fat assay: TC, TG, HDL-C, and LDL-C concentrations in serum were determined by applying Olympus Au2700 fully automatic biochemical appearance. • serum inflammatory markers assay: hs-CRP and sCD40L concentrations were determined by applying double antibody sandwich ELISA, in accordance with ELISA kit operating instruction (hs-CRP ELISA kit bought from Herrenberg company, Germany; sCD40L ELISA kit bought from Bender Medsystems company, Austria). • real-time quantitative PCR analysis was carried out on expression of CD36, perilipin, ABCA1, LXRα, MMP-9 and NF-κ B mRNA in apo E^−/^− mouse aorta (a reference method: Zhang Yiguan, Li Xiaohui, Fan Jishan, Zhang Haigang, Li Shuhui, Liao Wenqiang, Pang Yan, Jia Yi. […] 2007, 27 (11): 1601-1607)0 • morphology index image analysis: When slices were HE stained, under X40 fold ordinary light microscope, artery atherosclerosis plaque area of each incisal surface was determined by “Image Pro Plus 5.0” image analysis software. […]

[2] = tested on: sCD40L; assay: Serum sCD40L by double antibody sandwich ELISA in apo E−/− mice; format: in vivo, mouse; settings: 15 weeks
Procedure: as §1, §2, §3, §4

[3] = tested on: CD36 mRNA; assay: Real-time quantitative PCR of CD36 mRNA in apo E−/− mouse aorta; format: in vivo; settings: apo E−/− mice, 15 weeks
Procedure: as §1, §2, §3
(§5) • blood fat assay: TC, TG, HDL-C, and LDL-C concentrations in serum were determined by applying Olympus Au2700 fully automatic biochemical appearance. • serum inflammatory markers assay: hs-CRP and sCD40L concentrations were determined by applying double antibody sandwich ELISA, in accordance with ELISA kit operating instruction (hs-CRP ELISA kit bought from Herrenberg company, Germany; sCD40L ELISA kit bought from Bender Medsystems company, Austria). • real-time quantitative PCR analysis was carried out on expression of CD36, perilipin, ABCA1, LXRα, MMP-9 and NF-κ B mRNA in apo E^−/^− mouse aorta (a reference method: Zhang Yiguan, Li Xiaohui, Fan Jishan, Zhang Haigang, Li Shuhui, Liao Wenqiang, Pang Yan, Jia Yi. […] 2007, 27 (11): 1601-1607)0 • morphology index image analysis: When slices were HE stained, under X40 fold ordinary light microscope, artery atherosclerosis plaque area of each incisal surface was determined by “Image Pro Plus 5.0” image analysis software. […] As to Masosn staining, aortic root collagen area (CA) was measured by “Image Pro Plus 5.0” image analysis software, and collagen vessel area ratio (CA/CVA) was calculated. […]

[4] = tested on: perilipin mRNA; assay: Real-time quantitative PCR of perilipin mRNA in apo E−/− mouse aorta; format: in vivo; settings: apo E−/− mice, 15 weeks
Procedure: (§6) A. model group: vehicle; B. ginsenoside compound K low dose group: ginsenoside compound K 12.5 mg/kg/day; C. ginsenoside compound K middle dose group: ginsenoside compound K 25.0 mg/kg/day; D. ginsenoside compound K high dose group: ginsenoside compound K 50.0 mg/kg/day; E. simvastatin control group: simvastatin 10.0 mg/kg/day.
(§7) Above drugs were firstly solved in DMSO, then suspended in 0.5% carboxymethylcellulose solution, mixed homogeneously, and then were administered via gavage, once a day. Mice were weighted once a week, and ingestion amounts were recorded, and drug doses were adjusted according to weight, interfering for 15 weeks. All the animal were sacrificed in 30th week.
Total RNA sample of root of aorta of apo E^−/^− mouse: Total RNA samples of root of aorta in each group mouse were extracted, and utilized for analysis of gene expression of various lipid metabolic factors, inflammatory factors, and nucleic transcription factors associated with AS plaque development.

[5] = tested on: LXRα mRNA; assay: Real-time quantitative PCR of LXRα mRNA in apo E−/− mouse aorta; format: in vivo; settings: apo E−/− mice, 15 weeks
Procedure: as §1, §2, §3, §5

[6] = tested on: MMP-9 mRNA; assay: Real-time quantitative PCR of MMP-9 mRNA in apo E−/− mouse aorta; format: in vivo; settings: apo E−/− mice, 15 weeks
Procedure: as §1, §2, §3, §5

[7] = tested on: AS plaque in apo E−/− mouse aorta; assay: Sudan IV staining of aorta, proportion of plaque area in arteria lining endothelium area; format: in vivo; settings: apo E−/− mice, 15 weeks
Procedure: as §6, §7
Tissues of apo E^−/^− mice were sliced for AS plaque pathology: blood of eye sockets venous plexus of apo E−/− mice was sampled before the mice was sacrificed by cervical dislocation, and aorta was fixed by converse infusion of physiological saline comprising 4% paraformaldehyde into left ventricle, and then whole aorta was cut off from root of aorta to terminal end of abdomen aorta. Root of aorta was taken, and embedded routinely by paraffin, and slices of thickness of 5 μm were continuously cut off from root of aorta, and were subjected separately to HE staining, and MASSON staining, and then were utilized for AS plaque morphological index analysis of aortic valve cross section.
Pathological staining: □sequent 2 pieces of slices were picked up from each incisal surface of sequent paraffin slices of aorta root per mouse, and were separately subjected to HE staining, and MASSON staining, and were observed under light microscope. □remaining aorta was stained by Sudan IV, and was observed under light microscope.

[8] = C-K high dose 50.0 mg/kg/day gavage
[9] = C-K middle dose 25.0 mg/kg/day gavage
[10] = simvastatin 10.0 mg/kg/day gavage

**Q.** How did the “hs-CRP concentration in serum” value [1, 8] turn out when `CC(C)=CCC[C@](C)(OC1OC(CO)C(O)C(O)C1O)C1CC[C@]2(C)C1[C@H](O)CC1[C@@]3(C)CC[C@H](O)C(C)(C)C3CC[C@]12C` (stereo partly drawn) [C-K, 20-O-β-D-glucopyranosyl 20-(S)-protopanaxadiol] was run?
**A.** Its value is 6.14 ± 0.29^a ng/mL.

**Q.** What about the “hs-CRP concentration in serum” value ([1]; C-K low dose 12.5 mg/kg/day gavage, model 8.13 ± 0.51) of the same molecule?
**A.** The value was 6.68 ± 0.54^a ng/mL.

**Q.** And the “hs-CRP concentration in serum” value [1, 9]?
**A.** Its value is 6.49 ± 0.36^a ng/mL.

**Q.** What about the “sCD40L concentration in serum” value [2, 8] of the same molecule?
**A.** Its value is 5.19 ± 0.19^a ng/mL.

**Q.** And the “sCD40L concentration in serum” value ([2]; C-K low dose 12.5 mg/kg/day gavage, model 6.15 ± 0.21)?
**A.** The value was 5.51 ± 0.35^a ng/mL.

**Q.** What about the “sCD40L concentration in serum” value [2, 9] of the same molecule?
**A.** The value was 5.34 ± 0.32^a ng/mL.

**Q.** What about the “expression of CD36 mRNA in aorta (relative concentrations)” value [3, 8] of the same molecule?
**A.** Its value is 0.31 ± 0.08^b.

**Q.** What about the “expression of CD36 mRNA in aorta (relative concentrations)” value ([3]; C-K low dose 12.5 mg/kg/day gavage, model 1.12 ± 0.13) of the same molecule?
**A.** Its value is 0.54 ± 0.07^b.

**Q.** And the “expression of CD36 mRNA in aorta (relative concentrations)” value [3, 9]?
**A.** The value was 0.47 ± 0.08^b.

**Q.** What about the “expression of perilipin mRNA in aorta (relative concentrations)” value [4, 8] of the same molecule?
**A.** Its value is 0.51 ± 0.54^a.

**Q.** And the “expression of perilipin mRNA in aorta (relative concentrations)” value ([4]; C-K low dose 12.5 mg/kg/day gavage, model 1.08 ± 0.06)?
**A.** Its value is 0.68 ± 0.56^a.

**Q.** And the “expression of perilipin mRNA in aorta (relative concentrations)” value [4, 9]?
**A.** The value was 0.60 ± 0.49^a.

**Q.** And the “expression of LXRα mRNA in aorta (relative concentrations)” value [5, 8]?
**A.** Its value is 1.36 ± 0.06^b.

**Q.** And the “expression of LXRα mRNA in aorta (relative concentrations)” value ([5]; C-K low dose 12.5 mg/kg/day gavage, model 0.87 ± 0.06)?
**A.** The value was 1.26 ± 0.05^b.

**Q.** And the “expression of LXRα mRNA in aorta (relative concentrations)” value [5, 9]?
**A.** Its value is 1.33 ± 0.05^b.

**Q.** What about the “expression of MMP-9 mRNA in aorta (relative concentrations)” value [6, 8] of the same molecule?
**A.** The value was 0.67 ± 0.13^b.

**Q.** And the “expression of MMP-9 mRNA in aorta (relative concentrations)” value ([6]; C-K low dose 12.5 mg/kg/day gavage, model 1.15 ± 0.12)?
**A.** Its value is 0.87 ± 0.12^b.

**Q.** What about the “expression of MMP-9 mRNA in aorta (relative concentrations)” value [6, 9] of the same molecule?
**A.** Its value is 0.78 ± 0.11^b.

**Q.** What about the “plaque area/ arteria lining endothelium area” value [7, 8] of the same molecule?
**A.** The value was 6.73 ± 0.65^b %.

**Q.** What about the “plaque area/ arteria lining endothelium area” value ([7]; C-K low dose 12.5 mg/kg/day gavage, model 12.24 ± 0.45) of the same molecule?
**A.** Its value is 9.28 ± 0.39^b %.

**Q.** What about the “plaque area/ arteria lining endothelium area” value [7, 9] of the same molecule?
**A.** The value was 9.54 ± 0.21^b %.

**Q.** Which “hs-CRP concentration in serum” value [1, 10] does the source give for `CCC(C)(C)C(=O)O[C@H]1C[C@@H](C)C=C2C=C[C@H](C)[C@H](CC[C@@H]3C[C@@H](O)CC(=O)O3)[C@H]21` [simvastatin, reference compound] here?
**A.** Its value is 4.57 ± 0.68^b ng/mL.

**Q.** What about the “sCD40L concentration in serum” value [2, 10] of the same molecule?
**A.** Its value is 4.59 ± 0.37^b ng/mL.

**Q.** What about the “expression of CD36 mRNA in aorta (relative concentrations)” value [3, 10] of the same molecule?
**A.** Its value is 0.77 ± 0.11^a.

**Q.** And the “expression of perilipin mRNA in aorta (relative concentrations)” value [4, 10]?
**A.** The value was 0.23 ± 1.32^b.

**Q.** And the “expression of LXRα mRNA in aorta (relative concentrations)” value [5, 10]?
**A.** Its value is 0.95 ± 0.07.

**Q.** And the “expression of MMP-9 mRNA in aorta (relative concentrations)” value [6, 10]?
**A.** Its value is 0.94 ± 0.14^a.

**Q.** And the “plaque area/ arteria lining endothelium area” value [7, 10]?
**A.** Its value is 6.31 ± 0.19^b %.
